Experimental data taken from patent US10669242B2 (priority 2016, dated 2020).
pIC50: −log10 of the molar value. Where a name gives a salt, the structure may show the parent alone.

target: T1, recombinant glucosyltransferase domain of C. difficile Toxin B/TcdB (Clostridioides difficile, UniProt P18177); experiment: biochemical
T1 construct: 6-His (C); purchased R&D Systems 6246-GT
T1 sequence (P18177 1-543): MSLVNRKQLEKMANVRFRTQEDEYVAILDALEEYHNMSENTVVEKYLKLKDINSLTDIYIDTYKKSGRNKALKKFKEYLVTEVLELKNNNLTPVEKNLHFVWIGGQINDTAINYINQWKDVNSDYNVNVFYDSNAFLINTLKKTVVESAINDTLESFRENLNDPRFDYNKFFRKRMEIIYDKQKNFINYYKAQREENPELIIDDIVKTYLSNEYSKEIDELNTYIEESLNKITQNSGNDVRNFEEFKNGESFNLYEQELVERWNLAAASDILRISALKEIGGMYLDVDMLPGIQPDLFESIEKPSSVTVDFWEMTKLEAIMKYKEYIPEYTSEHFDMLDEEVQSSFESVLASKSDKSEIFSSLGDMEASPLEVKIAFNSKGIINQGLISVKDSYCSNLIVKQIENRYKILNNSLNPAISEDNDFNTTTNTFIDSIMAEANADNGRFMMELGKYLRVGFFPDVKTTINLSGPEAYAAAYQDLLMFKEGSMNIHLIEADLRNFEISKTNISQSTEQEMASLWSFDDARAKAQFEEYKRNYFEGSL

`O=C(c1ccccn1)c1ccc(CN2C(=O)c3ccc(Cl)cc3NC(=O)[C@H]2Cc2ccccn2)cc1F` [Example 11f, (R)-8-chloro-4-(3-fluoro-4-picolinoylbenzyl)-3-(pyridin-2-ylmethyl)-3,4-dihydro-1H-benzo[e][1,4]diazepine-2,5-dione] and `Cc1cc(CN2C(=O)c3ccc(Cl)cc3NC(=O)[C@H]2Cc2ccccn2)ccc1C(=O)c1ccccn1` [Example 11h, (R)-8-chloro-4-(3-methyl-4-picolinoylbenzyl)-3-(pyridin-2-ylmethyl)-3,4-dihydro-1H-benzo[e][1,4]diazepine-2,5-dione] cannot be ordered by pIC50: > 7.00 for the first, > 7.00 for the second.

Compared with `Cc1cccnc1C(=O)c1ccc(CN2C(=O)c3ccc(Cl)cc3NC(=O)[C@H]2Cc2ccccn2)cc1F` [Example 11i, (R)-8-chloro-4-(3-fluoro-4-(3-methylpicolinoyl)benzyl)-3-(pyridin-2-ylmethyl)-3,4-dihydro-1H-benzo[e][1,4]diazepine-2,5-dione], `COc1cc(CN2C(=O)c3ccc(Cl)cc3NC(=O)[C@H]2Cc2ccccn2)ccc1C(=O)c1ccccn1` [Example 11j, (R)-8-chloro-4-(3-methoxy-4-picolinoylbenzyl)-3-(pyridin-2-ylmethyl)-3,4-dihydro-1H-benzo[e][1,4]diazepine-2,5-dione] is higher in pIC50: 5.00 to 6.00 for the first, > 7.00 for the second.

First: CC(=O)NC(=O)c1ccc(CN2C(=O)c3ccc(Cl)cc3NC(=O)[C@H]2Cc2ccccn2)cc1 [Example 12a, (R)—N-Acetyl-4-((8-chloro-2,5-dioxo-3-(pyridin-2-ylmethyl)-2,3-dihydro-1H-benzo[e][1,4]diazepin-4(5H)-yl)methyl)benzamide]
Second: NC(=O)c1ccc(CN2C(=O)c3ccc(Cl)cc3NC(=O)[C@H]2Cc2ccccn2)cc1 [Example 13d]
The pIC50 of the first is higher: > 7.00 for the first, 6.00 to 7.00 for the second.

`O=C1Nc2cc(Cl)ccc2C(=O)N(Cc2ccc(C(=O)N3CCCC3=O)cc2)[C@@H]1Cc1ccccn1` [Example 12b, (R)-8-chloro-4-(4-(2-oxopyrrolidine-1-carbonyl)benzyl)-3-(pyridin-2-ylmethyl)-3,4-dihydro-1H-benzo[e][1,4]diazepine-2,5-dione] and `NC(=O)c1ccc(CN2C(=O)c3ccc(Cl)cc3NC(=O)[C@H]2Cc2cccnc2)cc1` [Example 13c, (R)-4-((8-chloro-2,5-dioxo-3-(pyridin-3-ylmethyl)-2,3-dihydro-1H-benzo[e][1,4]diazepin-4(5H)-yl)methyl)benzamide] fall in the same range of pIC50: 5.00 to 6.00 for the first, 5.00 to 6.00 for the second.

`NC(=O)c1ccc(CN2C(=O)c3ccc(Cl)cc3NC(=O)[C@@H]2Cc2ccc(Cl)c(Cl)c2)cc1` [Example 13a, (S)-4-((8-Chloro-3-(3,4-dichlorobenzyl)-2,5-dioxo-2,3-dihydro-1H-benzo[e][1,4]diazepin-4(5H)-yl)methyl)benzamide] and `CN(C)C(=O)c1ccc(CN2C(=O)c3ccc(Cl)cc3NC(=O)[C@H]2Cc2cccnc2)cc1` [Example 13b, (R)-4-((8-chloro-2,5-dioxo-3-(pyridin-3-ylmethyl)-2,3-dihydro-1H-benzo[e][1,4]diazepin-4(5H)-yl)methyl)-N,N-dimethylbenzamide] fall in the same range of pIC50: 4.46 to 5.00 for the first, 4.46 to 5.00 for the second.

First: N#Cc1ccc2c(c1)NC(=O)[C@@H](Cc1cccnc1)N(Cc1ccc(C(=O)Nc3ccccn3)cc1)C2=O [Example 14a, (R)-4-((8-Cyano-2,5-dioxo-3-(pyridin-3-ylmethyl)-2,3-dihydro-1H-benzo[e][1,4]diazepin-4(5H)-yl)methyl)-N-(pyridin-2-yl)benzamide Hydrochloride]
Second: O=C(NS(=O)(=O)c1ccccc1)c1ccc(CN2C(=O)c3ccc(Cl)cc3NC(=O)[C@H]2Cc2cccnc2)cc1 [Example 15a, (R)-4-((8-Chloro-2,5-dioxo-3-(pyridin-3-ylmethyl)-2,3-dihydro-1H-benzo[e][1,4]diazepin-4(5H)-yl)methyl)-N-(phenylsulfonyl)benzamide]
The pIC50 of the first is higher: > 7.00 for the first, 5.00 to 6.00 for the second.

`CS(=O)(=O)NC(=O)c1ccc(CN2C(=O)c3ccc(Cl)cc3NC(=O)[C@H]2Cc2cccnc2)cc1` [Example 15b, (R)-4-((8-chloro-2,5-dioxo-3-(pyridin-3-ylmethyl)-2,3-dihydro-1H-benzo[e][1,4]diazepin-4(5H)-yl)methyl)-N-(methylsulfonyl)benzamide] and `Cc1ccc(S(=O)(=O)NC(=O)c2ccc(CN3C(=O)c4ccc(Cl)cc4NC(=O)[C@H]3Cc3cccnc3)cc2)cc1` [Example 15e, (R)-4-((8-chloro-2,5-dioxo-3-(pyridin-3-ylmethyl)-2,3-dihydro-1H-benzo[e][1,4]diazepin-4(5H)-yl)methyl)-N-tosylbenzamide] fall in the same range of pIC50: 5.00 to 6.00 for the first, 5.00 to 6.00 for the second.

`O=C(NS(=O)(=O)c1ccc(Cl)cc1)c1ccc(CN2C(=O)c3ccc(Cl)cc3NC(=O)[C@H]2Cc2cccnc2)cc1` [Example 15c, (R)-4-((8-chloro-2,5-dioxo-3-(pyridin-3-ylmethyl)-2,3-dihydro-1H-benzo[e][1,4]diazepin-4(5H)-yl)methyl)-N-((4-chlorophenyl)sulfonyl)benzamide] and `COc1ccc(S(=O)(=O)NC(=O)c2ccc(CN3C(=O)c4ccc(Cl)cc4NC(=O)[C@H]3Cc3cccnc3)cc2)cc1` [Example 15d, (R)-4-((8-chloro-2,5-dioxo-3-(pyridin-3-ylmethyl)-2,3-dihydro-1H-benzo[e][1,4]diazepin-4(5H)-yl)methyl)-N-((4-methoxyphenyl)sulfonyl)benzamide] fall in the same range of pIC50: 5.00 to 6.00 for the first, 5.00 to 6.00 for the second.

First: Cc1ccc(NC(=O)c2ccc(CN3C(=O)c4ccc(N)cc4NC(=O)[C@H]3C)cc2)nc1 [Example 16a, (R)-4-((8-Amino-3-methyl-2,5-dioxo-2,3-dihydro-1H-benzo[e][1,4]diazepin-4(5H)-yl)methyl)-N-(5-methylpyridin-2-yl)benzamide]
Second: CC(=O)Nc1ccc2c(c1)NC(=O)[C@@H](C)N(Cc1ccc(C(=O)Nc3ccc(C)cn3)cc1)C2=O [Example 17a, (R)-4-((8-Acetamido-3-methyl-2,5-dioxo-2,3-dihydro-1H-benzo[e][1,4]diazepin-4(5H)-yl)methyl)-N-(5-methylpyridin-2-yl)benzamide]
The pIC50 of the first is lower: 5.00 to 6.00 for the first, 6.00 to 7.00 for the second. The second is the more potent here.

First: COCCC(=O)Nc1ccc2c(c1)NC(=O)[C@@H](C)N(Cc1ccc(C(=O)Nc3ccc(C)cn3)cc1)C2=O [Example 18a, (R)-4-((8-(3-Methoxypropanamido)-3-methyl-2,5-dioxo-2,3-dihydro-1H-benzo[e][1,4]diazepin-4(5H)-yl)methyl)-N-(5-methylpyridin-2-yl)benzamide]
Second: Cc1ccc(NC(=O)c2ccc(CN3C(=O)c4ccc(NC(=O)C(C)C)cc4NC(=O)[C@H]3C)cc2)nc1 [Example 18b, (R)-4-((8-isobutyramido-3-methyl-2,5-dioxo-2,3-dihydro-1H-benzo[e][1,4]diazepin-4(5H)-yl)methyl)-N-(5-methylpyridin-2-yl)benzamide]
The pIC50 of the first is higher: 5.00 to 6.00 for the first, 4.46 to 5.00 for the second.

First: Cc1ccc(NC(=O)c2ccc(CN3C(=O)c4ccc(NC(=O)c5cc(C)on5)cc4NC(=O)[C@H]3C)cc2)nc1 [Example 18c, (R)-5-methyl-N-(3-methyl-4-(4-((5-methylpyridin-2-yl)carbamoyl)benzyl)-2,5-dioxo-2,3,4,5-tetrahydro-1H-benzo[e][1,4]diazepin-8-yl)isoxazole-3-carboxamide]
Second: Cc1ccc(NC(=O)c2ccc(CN3C(=O)c4ccc(NC(=O)c5ccccn5)cc4NC(=O)[C@H]3C)cc2)nc1 [Example 18d, (R)-N-(3-methyl-4-(4-((5-methylpyridin-2-yl)carbamoyl)benzyl)-2,5-dioxo-2,3,4,5-tetrahydro-1H-benzo[e][1,4]diazepin-8-yl)picolinamide]
The pIC50 of the first is higher: 5.00 to 6.00 for the first, 4.46 to 5.00 for the second.

First: Cc1ccc(NC(=O)c2ccc(CN3C(=O)c4ccc(NC(=O)c5cccnc5)cc4NC(=O)[C@H]3C)cc2)nc1 [Example 18e, (R)-N-(3-methyl-4-(4-((5-methylpyridin-2-yl)carbamoyl)benzyl)-2,5-dioxo-2,3,4,5-tetrahydro-1H-benzo[e][1,4]diazepin-8-yl)nicotinamide]
Second: Cc1ccc(NC(=O)c2ccc(S(=O)(=O)N3Cc4ccc(Cl)cc4NC(=O)[C@H]3Cc3ccccn3)cc2)nc1 [Example 19a, (R)-4-((8-Chloro-2-oxo-3-(pyridin-2-ylmethyl)-2,3-dihydro-1H-benzo[e][1,4]diazepin-4(5H)-yl)sulfonyl)-N-(5-methylpyridin-2-yl)benzamide]
The pIC50 of the first is lower: 5.00 to 6.00 for the first, 6.00 to 7.00 for the second.

First: O=C(Nc1ccccn1)c1ccc(S(=O)(=O)N2Cc3ccc(Cl)cc3NC(=O)[C@H]2Cc2ccccn2)cc1 [Example 19b, (R)-4-((8-chloro-2-oxo-3-(pyridin-2-ylmethyl)-2,3-dihydro-1H-benzo[e][1,4]diazepin-4(5H)-yl)sulfonyl)-N-(pyridin-2-yl)benzamide]
Second: O=C(Nc1ccccn1)c1ccc(S(=O)(=O)N2Cc3ccc(Cl)cc3NC(=O)[C@@H]2Cc2ccccn2)cc1 [Example 19c, (S)-4-((8-chloro-2-oxo-3-(pyridin-2-ylmethyl)-2,3-dihydro-1H-benzo[e][1,4]diazepin-4(5H)-yl)sulfonyl)-N-(pyridin-2-yl)benzamide]
The pIC50 of the first is higher: > 7.00 for the first, 6.00 to 7.00 for the second.

`COc1ccc(NC(=O)c2ccc(S(=O)(=O)N3Cc4ccc(Cl)cc4NC(=O)[C@@H]3Cc3ccccn3)cc2)nc1` [Example 19d, (S)-4-((8-chloro-2-oxo-3-(pyridin-2-ylmethyl)-2,3-dihydro-1H-benzo[e][1,4]diazepin-4(5H)-yl)sulfonyl)-N-(5-methoxypyridin-2-yl)benzamide] and `COc1ccc(NC(=O)c2ccc(S(=O)(=O)N3Cc4ccc(Cl)cc4NC(=O)[C@H]3Cc3ccccn3)cc2)nc1` [Example 19f, (R)-4-((8-chloro-2-oxo-3-(pyridin-2-ylmethyl)-2,3-dihydro-1H-benzo[e][1,4]diazepin-4(5H)-yl)sulfonyl)-N-(5-methoxypyridin-2-yl)benzamide] fall in the same range of pIC50: 6.00 to 7.00 for the first, 6.00 to 7.00 for the second.

First: Cc1cnc(NC(=O)c2ccc(S(=O)(=O)N3Cc4ccc(Cl)cc4NC(=O)[C@@H]3Cc3ccccn3)cc2)nc1 [Example 19e, (S)-4-((8-chloro-2-oxo-3-(pyridin-2-ylmethyl)-2,3-dihydro-1H-benzo[e][1,4]diazepin-4(5H)-yl)sulfonyl)-N-(5-methylpyrimidin-2-yl)benzamide]
Second: Cc1cnc(NC(=O)c2ccc(S(=O)(=O)N3Cc4ccc(Cl)cc4NC(=O)[C@H]3Cc3ccccn3)cc2)nc1 [Example 19g, (R)-4-((8-chloro-2-oxo-3-(pyridin-2-ylmethyl)-2,3-dihydro-1H-benzo[e][1,4]diazepin-4(5H)-yl)sulfonyl)-N-(5-methylpyrimidin-2-yl)benzamide]
The pIC50 of the first is lower: 6.00 to 7.00 for the first, > 7.00 for the second. The second is the more potent here.
